Tests used:
factor XII = target: T1, factor XII (Homo sapiens, UniProt P00748); assay: Activation of factor XII in human plasma in the presence of sulfated polysaccharides; assay type: biochemical; settings: chromogenic substrate S-2302, FIG. 4
T1 construct: from tissue; host or cells: citrated human plasma
T1 sequence (P00748 20-615): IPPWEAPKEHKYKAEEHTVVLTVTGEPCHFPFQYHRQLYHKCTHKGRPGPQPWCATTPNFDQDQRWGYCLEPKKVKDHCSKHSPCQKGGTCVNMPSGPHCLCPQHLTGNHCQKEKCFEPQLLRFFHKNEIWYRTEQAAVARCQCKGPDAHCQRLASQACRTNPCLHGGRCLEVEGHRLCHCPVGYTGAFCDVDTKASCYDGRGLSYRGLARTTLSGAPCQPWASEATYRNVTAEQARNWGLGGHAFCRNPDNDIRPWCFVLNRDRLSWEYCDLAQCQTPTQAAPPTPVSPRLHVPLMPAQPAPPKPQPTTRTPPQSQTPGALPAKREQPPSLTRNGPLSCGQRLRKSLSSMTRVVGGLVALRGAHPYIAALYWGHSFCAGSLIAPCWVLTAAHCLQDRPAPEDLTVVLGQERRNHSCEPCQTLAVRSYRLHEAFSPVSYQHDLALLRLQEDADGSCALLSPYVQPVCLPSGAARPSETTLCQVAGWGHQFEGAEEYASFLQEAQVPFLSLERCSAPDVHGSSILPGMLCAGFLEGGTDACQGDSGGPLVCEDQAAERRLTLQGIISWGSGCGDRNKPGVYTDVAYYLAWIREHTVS
Procedure: FIG. 4 refers to the factor XII activation in human plasma incubated with non-fractionated heparin (□), native sulfated galactans (▴), ˜14 kDa fragment (◯) and a ˜5 kDa fragment ([…]). After 60 seconds of incubation at 37° C., 0.3 mM of chromogenic substrate for plasma calicrein was added. The increase in absorbance at 405 nm was expressed in milli OD/min (mean±standard error of the mean (SEM), n=3).
h) Activation of Factor XII in the Presence of Sulfated Polysaccharides
The assays for activation of factor XII were performed on plates of 96 wells. Citrated human plasma was diluted with 3 volumes of TS buffer and samples (40 μL) were incubated with different concentrations of sulfated polysaccharides (30 μL). After incubation at 37° C. for 60 seconds, were added 30 μL of chromogenic substrate (S-2302, 0.3 mM) (Chromogenix AB, Mondal, Sweden) and absorbance at 405 nm for 300 seconds was recorded. S-2302 is a chromogenic substrate for plasma calicrein activated by its precalicrein precursor through the action of activated factor XII. The method for determining the activity of factor XIIa is based on difference in absorbance between formed p-nitroanilide and original substrate. The formation rate of p-nitroanilide, i.e., the increase in absorbance at 405 nm, is proportional to enzyme activity. No activation occurred in control experiments in the absence of sulfated polysaccharide.

bleeding = system: bleeding; design: species or system Wistar rats; settings: rat, in vivo
Procedure: FIG. 6 refers to the effect on bleeding. Non-fractionated heparin (□), low molecular weight heparin (▪), native sulfated galactans (▴), and ˜5 kDa fragment ([…]) were infused into rats. After 5 minutes, the rats' tails were cut 3 mm from the tip and immersed in 40 mL of distilled water at room temperature. The loss of blood was determined after 60 minutes through the measure of hemoglobin in water. The results were expressed in μL of loss blood (mean±standard error of the mean (SEM), n=4). For clarity purposes only one SEM bar is shown for each point.
Wistar rats (both sexes, body weight ˜250 g) were anesthetized with a mixture of ketamine and xylazine, as previously described. The right carotid artery was cannulated and different polysaccharides doses were infused and allowed to circulate for 5 minutes. The rats tail was cut 3 mm from the tip and immersed in 40 mL of distilled water at room temperature. After 60 minutes, blood loss was determined by measuring the hemoglobin in water by using a spectrophotometric method (Zancan P, Mourão P A S. Venous and arterial thrombosis in rat models: dissociation of the antithrombotic effects of giycosaminoglycans. Blood Coagul Fibrin 2004; 15: 45-54). The blood volume was drawn from a standard curve based on absorbance at 540 nm.

[1] = International Standard (85/600); cited from earlier work
venous thrombosis = assay: Venous thrombosis model (vena cava, thromboplastin and stasis); assay type: in vivo, Wistar rats; settings: 1.00 mg/kg; FIGS. 3A and 3B
Procedure: Assays were performed in rats with different doses of non-fractionated heparin (□), low molecular weight heparin (▪), native sulfated galactans (▴), ˜14 kDa fragment (◯) and a ˜5 kDa fragment ([…]) (mean±standard error of the mean (SEM), n=3). Thrombosis induced model (A and B) in the rats' vena cava. The mean weight of the thrombus for each dose was expressed as a percentage of weight in the absence of polysaccharide, (C) Thrombosis in the arteriovenous shunt model. The mean weight of the thrombus for each dose was expressed as a percentage of the weight of thrombus in the absence of polysaccharide, (D) laser irradiation induced arterial thrombosis model in the carotid artery. Results were expressed as the mean time to complete occlusion of the artery.
The antithrombotic activity in rats was investigated using rabbit brain thromboplastin with thrombogenic stimulus. We followed the guidelines for institutional animal care and experimentation. Wistar rats (both sexes, body weight of ˜250 g) were anesthetized with a mixture of ketamine and xylazine, as already described. […] A 0.7 cm segment was prepared starting just below the branching of the right renal vein and extending until after the left renal vein which was linked. Different doses of sulfated polysaccharides were intravenously administered 1 cm below the distal lost suture and moved left for 5 minutes. […]

[2] = target: T2, factor Xa (antithrombin-mediated inactivation) (Homo sapiens, UniProt P00742+P01008); assay: Factor Xa inhibition by antithrombin in the presence of sulfated polysaccharides; assay type: biochemical; settings: antithrombin 10 nM, factor Xa 2 nM, FIG. 2B
T2 construct: thrombin or factor Xa 2 nM (Haematologic Technologies Inc., Vermont, USA); purchased Haematologic Technologies Inc., Vermont, USA
T2 sequence (P00742 41-179 limits assumed): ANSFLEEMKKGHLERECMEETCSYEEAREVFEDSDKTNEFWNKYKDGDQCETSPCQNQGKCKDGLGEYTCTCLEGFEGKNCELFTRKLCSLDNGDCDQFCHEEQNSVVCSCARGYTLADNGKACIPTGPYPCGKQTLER
T2 sequence (P00742 235-488 limits assumed): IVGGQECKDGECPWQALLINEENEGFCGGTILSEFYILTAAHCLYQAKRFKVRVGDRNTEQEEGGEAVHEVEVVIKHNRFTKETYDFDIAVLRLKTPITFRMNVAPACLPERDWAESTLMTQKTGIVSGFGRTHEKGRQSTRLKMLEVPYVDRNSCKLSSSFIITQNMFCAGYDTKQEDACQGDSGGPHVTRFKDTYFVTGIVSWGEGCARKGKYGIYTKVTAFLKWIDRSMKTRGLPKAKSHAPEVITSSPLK
T2 sequence (P01008 33-464): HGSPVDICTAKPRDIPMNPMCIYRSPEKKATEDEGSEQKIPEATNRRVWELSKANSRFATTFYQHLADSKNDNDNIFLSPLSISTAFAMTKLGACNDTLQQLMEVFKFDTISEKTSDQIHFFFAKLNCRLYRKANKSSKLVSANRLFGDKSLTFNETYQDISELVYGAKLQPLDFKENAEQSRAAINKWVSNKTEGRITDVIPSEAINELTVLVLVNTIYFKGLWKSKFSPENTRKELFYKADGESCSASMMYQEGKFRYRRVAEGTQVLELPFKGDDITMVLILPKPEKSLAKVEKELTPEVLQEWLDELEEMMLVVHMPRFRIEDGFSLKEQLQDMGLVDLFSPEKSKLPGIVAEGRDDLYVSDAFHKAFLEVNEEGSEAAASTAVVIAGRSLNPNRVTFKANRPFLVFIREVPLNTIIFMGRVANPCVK
Procedure: (§1) Antithrombin (10 nM) or of heparin cofactor II (15 nM) were incubated with thrombin (2 nM) or factor Xa (2 nM) in the presence of various concentrations of non-fractionated heparin (□), low molecular weight heparin (▪), native sulfated galactans (▴), ˜14 kDa fragment (◯) and a ˜5 kDa fragment ([…]). After 60 seconds, the amidolytic thrombin activity and factor Xa were determined with a chromogenic substrate specific for each protease ([…]) [mean±standard error of the mean (SEM), n=3]. No inhibition was observed when thrombin or factor Xa was incubated with sulfated polysaccharide alone over the same range of tested concentrations.
(§2) g) Thrombin Inhibition or Factor Xa by Antithrombin and Heparin Cofactor II in the Presence of Sulfated Polysaccharides
(§3) The incubations were performed on plates of 96 wells. […] After 60 seconds at 37° C., were added 25 μL chromogenic substrate (S-2238 for thrombin or S-2222 for factor Xa) (Chromogenix AB, Mondal, Sweden), and was recorded absorbance at 405 nm for 120 seconds. The rate of absorbance change was proportional to the activity of thrombin or factor Xa remaining in the incubation. […]

[3] = target: T3, thrombin (antithrombin-mediated inactivation) (Homo sapiens, UniProt P00734+P01008); assay: Thrombin inhibition by antithrombin in the presence of sulfated polysaccharides; assay type: biochemical; settings: antithrombin 10 nM, thrombin 2 nM, FIG. 2A
T3 construct: purchased Haematologic Technologies Inc., Vermont, USA
Procedure: as §1, §2, §3

[4] = target: T4, thrombin (heparin cofactor II-mediated inactivation) (Homo sapiens, UniProt P00734+P05546); assay: Thrombin inhibition by heparin cofactor II in the presence of sulfated polysaccharides; assay type: biochemical; settings: heparin cofactor II 15 nM, thrombin 2 nM, FIG. 2C
T4 construct: purchased Haematologic Technologies Inc., Vermont, USA
Procedure: as §1, §2, §3

Substance	factor XII activation (factor XII)	effect on bleeding (hemorrhagic effect, bleeding time) (bleeding)	activity of the standard [1] [IU/mg]	antithrombotic activity (venous thrombosis)	inactivation of factor Xa by antithrombin [2]	inactivation of thrombin by antithrombin [3]	inactivation of thrombin by heparin cofactor II [4]
dextran sulfate	activates factor XII	–	–	–	–	–	–
low molecular weight heparin	–	had no effect	66	approximately 70%	more active than ˜5 kDa fragment	more active than ˜5 kDa fragment	more active than ˜5 kDa fragment

From patent publication US20110263527A1, “Sulfated Galactans With Antithrombotic Activity, Pharmaceutical Composition, Method for Treating or Prophylaxis of Arterial or Venous Thrombosis, Method of Extraction and Use Thereof” (priority 2008, published 2011)
